Results taken from patent US20240116912A1, “COMPOUNDS AND METHODS FOR MODULATING FXR” (Terns Pharmaceuticals, Inc., priority 2020, published 2024).

Tests used:
[1] = molecular target: full length human FXR protein (Homo sapiens (Human), UniProt Q96RI1); assay: FXR cellular assay (FXR-SRCP β-gal enzyme fragment complementation in CHO-K1 cells, chemiluminescence); type: cell-based; settings: CHO-K1 cells with SRCP-EA and ProLink-labeled FXR, 0-10 micromolar compound, 37° C. for 6h, read-out: EC50 FXR-cell Luminescence/
Description: A cell based FXR assay was used to detect protein-protein interactions between an activated (ligand-bound), full length human FXR protein and a nuclear fusion protein containing a Steroid Receptor Coactivator Peptide (SCRP) domain. In this approach, two weakly complementing fragments of the 3-gal enzyme were expressed within stably transfected Chinese Hamster Ovary (CHO-K1) cells. The complementing fragments of the 3-gal enzyme (ProLink, PK; and Enzyme Acceptor, EA) were translationally fused to the C-terminus of a full-length FXR and to the SRCP, respectively. Complementation was driven by the protein-protein interaction between SRCP-EA and a ProLink-labeled FXR. Upon FXR-SRCP binding, the two fragments of 3-gal complement, forming a functional enzyme capable of hydrolyzing a substrate molecule and generating a chemiluminescent signal.
CHO-K1 cells containing SRCP-EA and ProLink-labeled FXR were plated in 384-well microplates and incubated at 37° C. overnight. A positive control FXR agonist, GW4064 (0-10 micromolar), or test compounds (0-10 micromolar) were added to plated cells and incubated at 37° C. for 6h (final DMSO vehicle concentration was 1%). The assay signal was generated by addition of 50% (v/v) detection reagent (19:5:1, cell assay buffer: substrate reagent 1: substrate reagent 2, DiscoverX) followed by incubation for 1h at ambient room temperature. Microplates were analyzed using an Envision reader (PerkinElmer Life and Analytical Sciences, Signal=chemiluminescence).

[2] = molecular target: ligand binding domain (LBD) of recombinant human FXR (Homo sapiens (Human), UniProt Q96RI1); assay: FXR cell free coactivator (SRC-1) recruitment assay, TR-FRET; settings: FXR LBD (amino acids 244-476) with labeled SRC-1 domain, 25° C. for 60 minutes, activity relative to CDCA maximum; read-out: EC50 FXR- Biochemical TR-FRET/μM
Method: A cell free coactivator recruitment assay was developed for FXR, to measure the functional potency of novel FXR compounds. In this assay, novel FXR compounds were bound to the ligand binding domain (LBD) of recombinant human FXR. The ability of this liganded homodimeric complex to recruit the co-activator protein steroid receptor coactivator 1 (SRC-1) was measured using Time-Resolved Fluorescence Resonance Energy Transfer (TR-FRET).
The LBD of human FXR (amino acids 244-476) was cloned into an expression vector for protein expression in SF9 insect cells. Purified FXR LBD was incubated in TR-FRET coregulator buffer G (Eurofins) with test compounds (0-10 micromolar) and a labeled nuclear receptor interaction domain of SRC-1 at 25° C. for 60 minutes (final DMSO vehicle concentration was 1.2%). Assays were analyzed using an Envision TR-FRET reader (PerkinElmer Life and Analytical Sciences). Compound activity at each concentration was defined as a percentage of the maximal activity of the natural FXR ligand agonist chenodeoxycholic acid (CDCA) generating a dose response curve.

Chain of full length human FXR protein (Q96RI1 whole entry, the tested form may be a part): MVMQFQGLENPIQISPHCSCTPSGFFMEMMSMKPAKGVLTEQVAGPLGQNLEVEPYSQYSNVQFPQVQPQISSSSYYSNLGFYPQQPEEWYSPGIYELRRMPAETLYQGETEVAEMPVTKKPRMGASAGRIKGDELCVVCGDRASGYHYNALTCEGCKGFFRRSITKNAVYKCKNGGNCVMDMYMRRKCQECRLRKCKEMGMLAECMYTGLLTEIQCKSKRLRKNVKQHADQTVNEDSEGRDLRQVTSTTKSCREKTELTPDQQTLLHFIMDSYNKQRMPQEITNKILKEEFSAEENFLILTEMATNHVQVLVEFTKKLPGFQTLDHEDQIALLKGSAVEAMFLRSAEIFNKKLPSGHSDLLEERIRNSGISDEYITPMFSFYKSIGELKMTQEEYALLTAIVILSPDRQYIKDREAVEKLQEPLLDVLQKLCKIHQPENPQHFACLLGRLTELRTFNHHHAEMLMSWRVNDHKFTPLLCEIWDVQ
Chain of ligand binding domain (LBD) of recombinant human FXR (Q96RI1 254-486): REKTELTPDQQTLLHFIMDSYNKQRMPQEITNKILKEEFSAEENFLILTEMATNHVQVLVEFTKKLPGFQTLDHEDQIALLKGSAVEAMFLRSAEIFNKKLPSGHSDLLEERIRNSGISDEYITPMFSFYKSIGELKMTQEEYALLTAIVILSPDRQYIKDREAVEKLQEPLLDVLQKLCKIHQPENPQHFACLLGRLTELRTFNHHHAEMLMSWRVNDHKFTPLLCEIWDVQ
Chain of ligand binding domain (LBD) of recombinant human FXR (Q15788 whole entry partner, the tested form may be a part): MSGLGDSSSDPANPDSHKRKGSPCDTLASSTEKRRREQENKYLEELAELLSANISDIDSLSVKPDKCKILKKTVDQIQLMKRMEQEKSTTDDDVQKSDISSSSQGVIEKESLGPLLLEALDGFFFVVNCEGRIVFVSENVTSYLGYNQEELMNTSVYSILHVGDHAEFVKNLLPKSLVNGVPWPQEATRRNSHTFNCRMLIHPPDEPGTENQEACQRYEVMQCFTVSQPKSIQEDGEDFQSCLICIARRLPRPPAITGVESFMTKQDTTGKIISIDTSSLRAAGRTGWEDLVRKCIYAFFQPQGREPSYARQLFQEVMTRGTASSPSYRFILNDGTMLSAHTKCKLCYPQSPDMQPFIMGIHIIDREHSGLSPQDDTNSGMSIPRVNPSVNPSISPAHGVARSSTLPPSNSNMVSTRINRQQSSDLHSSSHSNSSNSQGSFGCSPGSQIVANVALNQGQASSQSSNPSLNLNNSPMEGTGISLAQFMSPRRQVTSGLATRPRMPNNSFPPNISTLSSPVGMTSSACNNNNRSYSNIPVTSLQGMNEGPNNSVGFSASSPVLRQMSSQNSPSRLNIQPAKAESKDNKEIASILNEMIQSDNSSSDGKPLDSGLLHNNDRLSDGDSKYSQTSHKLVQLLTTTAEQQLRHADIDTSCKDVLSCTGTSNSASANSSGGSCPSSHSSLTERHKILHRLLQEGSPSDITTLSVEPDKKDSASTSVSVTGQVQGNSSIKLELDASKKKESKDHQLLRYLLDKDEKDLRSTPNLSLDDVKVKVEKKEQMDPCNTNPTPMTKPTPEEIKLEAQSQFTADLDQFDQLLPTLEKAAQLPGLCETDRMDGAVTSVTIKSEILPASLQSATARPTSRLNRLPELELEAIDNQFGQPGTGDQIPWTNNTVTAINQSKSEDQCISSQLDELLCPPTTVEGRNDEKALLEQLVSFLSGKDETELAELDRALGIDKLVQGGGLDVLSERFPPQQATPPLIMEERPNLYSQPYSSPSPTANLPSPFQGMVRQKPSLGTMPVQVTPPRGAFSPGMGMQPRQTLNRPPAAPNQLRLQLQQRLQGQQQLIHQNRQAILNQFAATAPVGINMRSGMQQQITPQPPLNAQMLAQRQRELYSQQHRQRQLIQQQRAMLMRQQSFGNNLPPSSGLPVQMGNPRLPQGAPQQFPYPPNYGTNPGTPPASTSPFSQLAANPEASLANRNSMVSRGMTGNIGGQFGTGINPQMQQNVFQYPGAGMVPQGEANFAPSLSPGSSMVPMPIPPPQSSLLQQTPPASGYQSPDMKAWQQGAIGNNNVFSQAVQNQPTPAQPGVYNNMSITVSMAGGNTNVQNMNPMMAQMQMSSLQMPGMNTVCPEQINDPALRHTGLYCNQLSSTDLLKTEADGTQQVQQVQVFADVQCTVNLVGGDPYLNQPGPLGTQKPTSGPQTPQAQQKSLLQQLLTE

SMILES	EC50 [1] [nM]	EC50 [2] [µM]
O=c1[nH]c(-c2ncc(N3CCC(OCc4c(-c5c(Cl)cccc5Cl)noc4C4CC4)CC3)cn2)no1 [Example 8, 3-(5-(4-((5-cyclopropyl-3-(2,6-dichlorophenyl)isoxazol-4-yl)methoxy)piperidin-1-yl)pyrimidin-2-yl)-1,2,4-oxadiazol-5(4H)-one]	2110	0.0281
C[C@H]1C[C@H](OCc2c(-c3c(Cl)cccc3Cl)noc2C2CC2)CCN1c1ccc(-c2noc(=O)[nH]2)cc1 [Example 20, 3-(4-((2S,4R)-4-((5-cyclopropyl-3-(2,6-dichlorophenyl)isoxazol-4-yl)methoxy)-2-methylpiperidin-1-yl)phenyl)-1,2,4-oxadiazol-5(4H)-one]	398	0.114
C[C@@H]1C[C@@H](OCc2c(-c3c(Cl)cccc3Cl)noc2C2CC2)CCN1c1ccc(-c2noc(=O)[nH]2)cc1 [Example 21, 3-(4-((2R,4S)-4-((5-cyclopropyl-3-(2,6-dichlorophenyl)isoxazol-4-yl)methoxy)-2-methylpiperidin-1-yl)phenyl)-1,2,4-oxadiazol-5(4H)-one]	343	0.0793
C[C@H]1C[C@@H](OCc2c(-c3c(Cl)cccc3Cl)noc2C2CC2)CCN1c1ccc(-c2noc(=O)[nH]2)cc1 [Example 22, 3-(4-((2S,4S)-4-((5-cyclopropyl-3-(2,6-dichlorophenyl)isoxazol-4-yl)methoxy)-2-methylpiperidin-1-yl)phenyl)-1,2,4-oxadiazol-5(4H)-one]	418	0.0633
C[C@@H]1C[C@H](OCc2c(-c3c(Cl)cccc3Cl)noc2C2CC2)CCN1c1ccc(-c2noc(=O)[nH]2)cc1 [Example 23, 3-(4-((2R,4R)-4-((5-cyclopropyl-3-(2,6-dichlorophenyl)isoxazol-4-yl)methoxy)-2-methylpiperidin-1-yl)phenyl)-1,2,4-oxadiazol-5(4H)-one]	27.7	0.0031
O=c1[nH]c(-c2ccc(N3CCC(OCc4c(-c5c(F)cccc5F)noc4C4CC4)CC3)cc2)no1 [Example 26, 3-(4-(4-((5-cyclopropyl-3-(2,6-difluorophenyl)isoxazol-4-yl)methoxy)piperidin-1-yl)phenyl)-1,2,4-oxadiazol-5(4H)-one]	562	0.111
CCOc1cccc(F)c1-c1noc(C2CC2)c1COC1CCN(c2ccc(-c3noc(=O)[nH]3)cc2)CC1 [Example 27, 3-(4-(4-((5-cyclopropyl-3-(2-ethoxy-6-fluorophenyl)isoxazol-4-yl)methoxy)piperidin-1-yl)phenyl)-1,2,4-oxadiazol-5(4H)-one]	960	0.227
COc1cccc(F)c1-c1noc(C2CC2)c1COC1CCN(c2ccc(-c3noc(=O)[nH]3)cc2)CC1 [Example 28, 3-(4-(4-((5-cyclopropyl-3-(2-fluoro-6-methoxyphenyl)isoxazol-4-yl)methoxy)piperidin-1-yl)phenyl)-1,2,4-oxadiazol-5(4H)-one]	1610	0.149
O=c1[nH]c(-c2coc(N3CCC(OCc4c(-c5c(Cl)cccc5Cl)noc4C4CC4)CC3)n2)no1 [Example 29, 3-(2-(4-((5-cyclopropyl-3-(2,6-dichlorophenyl)isoxazol-4-yl)methoxy)piperidin-1-yl)oxazol-4-yl)-1,2,4-oxadiazol-5(4H)-one]	3190	0.231

Other lines, results leading:

EC50 [1] [nM]	EC50 [2] [µM]	SMILES
1590	0.175	O=c1[nH]c(-c2ccc(N3CCC(OCc4c(-c5c(Cl)cccc5Cl)noc4C4CC4)CC3)cn2)no1 [Example 9, 3-(5-(4-((5-cyclopropyl-3-(2,6-dichlorophenyl)isoxazol-4-yl)methoxy)piperidin-1-yl)pyridin-2-yl)-1,2,4-oxadiazol-5(4H)-one]
409	0.0091	O=c1[nH]nc(-c2ccc(N3CCC(OCc4c(-c5c(Cl)cccc5Cl)noc4C4CC4)CC3)cc2)c(=O)[nH]1 [Example 10, 6-(4-(4-((5-cyclopropyl-3-(2,6-dichlorophenyl)isoxazol-4-yl)methoxy)piperidin-1-yl)phenyl)-1,2,4-triazine-3,5(2H,4H)-dione]
280	0.0219	Cc1cc(N2CCC(OCc3c(-c4c(Cl)cccc4Cl)noc3C3CC3)CC2)ccc1-c1noc(=O)[nH]1 [Example 11, 3-(4-(4-((5-cyclopropyl-3-(2,6-dichlorophenyl)isoxazol-4-yl)methoxy)piperidin-1-yl)-2-methylphenyl)-1,2,4-oxadiazol-5(4H)-one]
437	0.0737	O=c1[nH]nc(-c2ccc(N3CCC(OCc4c(-c5c(Cl)cccc5Cl)noc4C4CC4)CC3)cc2)o1 [Example 12, 5-(4-(4-((5-cyclopropyl-3-(2,6-dichlorophenyl)isoxazol-4-yl)methoxy)piperidin-1-yl)phenyl)-1,3,4-oxadiazol-2(3H)-one]
82.3	0.0035	O=c1[nH]c(-c2ccc(N3CCC(OCc4c(-c5c(Cl)cccc5Cl)noc4C4CC4)CC3)cc2F)no1 [Example 13, 3-(4-(4-((5-cyclopropyl-3-(2,6-dichlorophenyl)isoxazol-4-yl)methoxy)piperidin-1-yl)-2-fluorophenyl)-1,2,4-oxadiazol-5(4H)-one]
64	0.0085	O=c1[nH]c(-c2ccc(N3CCC(OCc4c(-c5c(Cl)cccc5Cl)noc4C4CC4)CC3)cc2Cl)no1 [Example 14, 3-(2-chloro-4-(4-((5-cyclopropyl-3-(2,6-dichlorophenyl)isoxazol-4-yl)methoxy)piperidin-1-yl)phenyl)-1,2,4-oxadiazol-5(4H)-one]
5510	0.892	O=c1[nH]c(-c2ccc(N3CCC(OCc4c(-c5c(Cl)cccc5Cl)noc4C4CC4)C3)cc2)no1 (stereo not shown) [Example 15, 3-(4-(3-((5-cyclopropyl-3-(2,6-dichlorophenyl)isoxazol-4-yl)methoxy)pyrrolidin-1-yl)phenyl)-1,2,4-oxadiazol-5(4H)-one]
195	0.024	O=c1cc(-c2ccc(N3CCC(OCc4c(-c5c(Cl)cccc5Cl)noc4C4CC4)CC3)cc2)o[nH]1 [Example 16, 5-(4-(4-((5-cyclopropyl-3-(2,6-dichlorophenyl)isoxazol-4-yl)methoxy)piperidin-1-yl)phenyl)isoxazol-3(2H)-one]
4730	6.07	O=c1cnn(-c2ccc(N3CCC(OCc4c(-c5c(Cl)cccc5Cl)noc4C4CC4)CC3)cc2)c(=O)[nH]1 [Example 17, 2-(4-(4-((5-cyclopropyl-3-(2,6-dichlorophenyl)isoxazol-4-yl)methoxy)piperidin-1-yl)phenyl)-1,2,4-triazine-3,5(2H,4H)-dione]
18.4	0.0029	O=c1[nH]c(-c2ccc(N3CCCC(OCc4c(-c5c(Cl)cccc5Cl)noc4C4CC4)CC3)cc2)no1 (stereo not shown) [Example 18, 3-(4-(4-((5-cyclopropyl-3-(2,6-dichlorophenyl)isoxazol-4-yl)methoxy)azepan-1-yl)phenyl)-1,2,4-oxadiazol-5(4H)-one]
840	0.122	O=c1[nH]c(-c2ccc(N3CC(OCc4c(-c5c(Cl)cccc5Cl)noc4C4CC4)C3)cc2)no1 [Example 19, 3-(4-(3-((5-cyclopropyl-3-(2,6-dichlorophenyl)isoxazol-4-yl)methoxy)azetidin-1-yl)phenyl)-1,2,4-oxadiazol-5(4H)-one]
3620	0.296	O=c1[nH]c(-c2cc(N3CCC(OCc4c(-c5c(Cl)cccc5Cl)noc4C4CC4)CC3)cs2)no1 [Example 30, 3-(4-(4-((5-cyclopropyl-3-(2,6-dichlorophenyl)isoxazol-4-yl)methoxy)piperidin-1-yl)thiophen-2-yl)-1,2,4-oxadiazol-5(4H)-one]
271	0.045	C[C@@H]1CN(c2ccc(-c3noc(=O)[nH]3)cc2)CC[C@@H]1OCc1c(-c2c(Cl)cccc2Cl)noc1C1CC1 [Example 31, 3-(4-((3R,4S)-4-((5-cyclopropyl-3-(2,6-dichlorophenyl)isoxazol-4-yl)methoxy)-3-methylpiperidin-1-yl)phenyl)-1,2,4-oxadiazol-5(4H)-one]
195	0.0126	C[C@H]1CN(c2ccc(-c3noc(=O)[nH]3)cc2)CC[C@H]1OCc1c(-c2c(Cl)cccc2Cl)noc1C1CC1 [Example 32, 3-(4-((3S,4R)-4-((5-cyclopropyl-3-(2,6-dichlorophenyl)isoxazol-4-yl)methoxy)-3-methylpiperidin-1-yl)phenyl)-1,2,4-oxadiazol-5(4H)-one]
